Assay results taken from patent US11242335B2, “Fluorine-substituted indazole compounds and uses thereof” (SUNSHINE LAKE PHARMA CO., LTD., priority 2017, dated 2022).

Tests used:
[1] = Pharmacokinetics in male SD rats after intravenous and oral administration; type: in vivo
Procedure: Preparation of test compound solution: The test compound was formulated with 5% dimethylsulfoxide, 5% Solutol HS 15 and 90% physiological saline to give solution, which was used for oral and intravenous administration.
Male SD rats weighing 190-250 g were randomly divided into two groups, each group had three members; one group received test compound at a dose of 1.0 mg/kg by intravenous injection, the other group received test compound at a dose of 2.5 or 5.0 mg/kg by oral. After dosing, blood samples were collected at time points of 0.0833, 0.25, 0.5, 1.0, 2.0, 4.0, 7.0 and 24 h. Standard curve was plotted based on concentrations of the samples in a suitable range, the concentrations of test compounds in plasma samples were determined by using AB SCIEX API4000 LC-MS/MS in MRM mode. Pharmacokinetic parameters were calculated according to drug concentration-time curve using a noncompartmental method by WinNonLin 6.3 software.

[2] = molecular target: T1, hERG potassium channel (Homo sapiens, UniProt Q12809); experiment: Inhibition of hERG potassium channel, manual patch clamp in HEK293 cells; type: cell-based; conditions: hERG tail current; HEK293 cells overexpressing hERG; whole cell patch clamp; 22-24° C.
T1 construct: expressed in transfected cells; host or cells: HEK293
Procedure: Each compound was weighed and dissolved in DMSO and diluted with DMSO to a serial solution (30, 10, 3.3, 1.1, 0.37 mM). The above serial solutions were diluted to 1000-fold with the extracellular fluid to prepare test solutions (final concentration was 30, 10, 3.3, 1.1, 0.37 μM respectively).
The HEK293 cells that overexpressed the hERG potassium channel were cultured in a 37° C., 5% CO2 incubator, and the culture medium contained DMEM, 15% fetal bovine serum, and 1% penicillin-streptomycin. When the cell density reached 80% of the culture plate, the cells were digested with trypsin/EDTA and transferred to a centrifuge tube, centrifuged at 1000 rpm for 3 minutes, then supernatant was discarded, and the cell culture medium was added. The cells were mixed uniformly by gently blowing and beating. […]
The whole cell recording mode was used to record the channel current in the experiment. Firstly, the extracellular fluid was perfused (approximately 2 mL per minute) and the data were continuous recorded, and the current was kept steady (the current decay was less than 5% in 5 minutes). […] The extracellular fluid containing the test compound was then perfused and the data were continuous recorded until the compound's inhibitory effect on the hERG current reached a steady state, at this time point the peak value of tail current was the current value after dosing. […]

T1 sequence (Q12809 whole entry): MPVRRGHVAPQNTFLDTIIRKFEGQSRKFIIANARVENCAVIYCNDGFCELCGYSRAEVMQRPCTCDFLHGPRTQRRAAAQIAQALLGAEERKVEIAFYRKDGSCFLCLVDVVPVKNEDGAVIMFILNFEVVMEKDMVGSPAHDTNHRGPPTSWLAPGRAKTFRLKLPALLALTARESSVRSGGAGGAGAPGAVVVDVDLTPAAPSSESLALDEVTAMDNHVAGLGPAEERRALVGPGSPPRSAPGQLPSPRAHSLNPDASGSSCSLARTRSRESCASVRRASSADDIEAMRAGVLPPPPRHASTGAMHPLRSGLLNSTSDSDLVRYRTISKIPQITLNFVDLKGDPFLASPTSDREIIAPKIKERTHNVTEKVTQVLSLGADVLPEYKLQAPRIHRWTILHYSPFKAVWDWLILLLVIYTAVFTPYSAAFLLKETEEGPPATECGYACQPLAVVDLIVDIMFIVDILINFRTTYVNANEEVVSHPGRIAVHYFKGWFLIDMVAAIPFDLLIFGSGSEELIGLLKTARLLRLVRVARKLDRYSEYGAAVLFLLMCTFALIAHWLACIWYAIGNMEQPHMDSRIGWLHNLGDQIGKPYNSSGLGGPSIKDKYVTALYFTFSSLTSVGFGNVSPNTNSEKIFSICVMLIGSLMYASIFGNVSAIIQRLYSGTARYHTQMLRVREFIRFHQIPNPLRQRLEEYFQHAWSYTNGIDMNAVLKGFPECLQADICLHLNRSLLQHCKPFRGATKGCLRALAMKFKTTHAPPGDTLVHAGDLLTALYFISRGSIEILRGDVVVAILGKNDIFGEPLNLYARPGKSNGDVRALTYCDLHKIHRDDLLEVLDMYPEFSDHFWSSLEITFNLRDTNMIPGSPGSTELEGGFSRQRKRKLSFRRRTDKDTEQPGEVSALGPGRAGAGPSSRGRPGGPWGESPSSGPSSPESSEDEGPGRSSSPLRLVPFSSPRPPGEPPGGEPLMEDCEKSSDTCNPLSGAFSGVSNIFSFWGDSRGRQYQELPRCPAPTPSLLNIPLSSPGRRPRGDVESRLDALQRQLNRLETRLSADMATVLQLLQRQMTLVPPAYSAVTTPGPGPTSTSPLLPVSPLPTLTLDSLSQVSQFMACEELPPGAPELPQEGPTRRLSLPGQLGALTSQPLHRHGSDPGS

With `COC(=O)Nc1c(N)nc(-c2nn(Cc3ccccc3F)c3c(F)cccc23)nc1N` [Example 10, methyl (4,6-diamino-2-(7-fluoro-1-(2-fluorobenzyl)-1H-indazol-3-yl)pyrimidin-5-yl)carbamate] as the compound, how does the F ([1]; po 5 mg/kg versus iv 1 mg/kg) read?
The F was 99.6%.

What about the AUC(0-t) ([1]; rat, plasma, iv, 1 mg/kg) of the same compound?
Its AUC(0-t) is 7520 ng·h/mL.

And the Cmax ([1]; rat, plasma, iv, 1 mg/kg)?
Its Cmax is 1500 ng/mL.

And the Tmax ([1]; rat, plasma, iv, 1 mg/kg)?
Its Tmax is 0.083 h.

What about the clearance ([1]; rat, plasma, iv, 1 mg/kg) of the same compound?
Its clearance is 2.21 mL/min/kg.

What about the half-life ([1]; rat, plasma, iv, 1 mg/kg) of the same compound?
Its half-life is 3.54 h.

What about the Vd ([1]; rat, plasma, iv, 1 mg/kg, read-out: Vss) of the same compound?
Its Vd is 0.63 L/kg.

What about the AUC(0-t) ([1]; rat, plasma, po, 5 mg/kg) of the same compound?
The AUC(0-t) was 37500 ng·h/mL.

What about the Cmax ([1]; rat, plasma, po, 5 mg/kg) of the same compound?
The Cmax was 3070 ng/mL.

What about the Tmax ([1]; rat, plasma, po, 5 mg/kg) of the same compound?
The Tmax was 2 h.

What about the half-life ([1]; rat, plasma, po, 5 mg/kg) of the same compound?
The half-life was 4.34 h.

What about the IC50 [2] of the same compound?
Its IC50 is 19.9 µM.
